Measurements published in ChEMBL document CHEMBL1201862, “PubChem BioAssay data set” (2004).
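Results reflect a 48-hour exposure of cells in 96-well plates to compound at five concentrations. Abbreviation: GI50, concentration required for 50% inhibition of growth.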 Active and inactive are the calls of the source. No stated cut-off is given here; in the data, active = GI50 up to about 1.1 µM and inactive = higher.

Assays:
Experiment in all cases: NCI-60 cell line screen, 48 h
[1] = system: HOP-62
[2] = system: SF-539
[3] = system: NCI-H23
[4] = system: SK-MEL-5
[5] = system: A498
[6] = system: A549
[7] = system: Malme-3M
[8] = system: HL-60
[9] = system: HCC 2998
[10] = system: LOX IMVI
[11] = system: SF-268
[12] = system: HCT-116
[13] = system: CAKI-1
[14] = system: SW-620
[15] = system: OVCAR-8
[16] = system: EKVX
[17] = system: TK-10

| Compound | GI50 [1] | GI50 [2] | GI50 [3] | GI50 [4] | GI50 [5] | GI50 [6] | GI50 [7] | GI50 [8] | GI50 [9] | GI50 [10] | GI50 [11] | GI50 [12] | GI50 [13] | GI50 [14] | GI50 [15] | GI50 [16] | GI50 [17] |
| --- | --- | --- | --- | --- | --- | --- | --- | --- | --- | --- | --- | --- | --- | --- | --- | --- | --- |
| CCS(=O)(=O)Nc1ccc(Nc2c3ccccc3nc3ccccc23)c(OC)c1 | 0.067 µM (active) | 0.295 µM (active) | 0.203 µM (active) | 0.796 µM (active) | 0.24 µM (active) | 0.0205 µM (active) | 0.515 µM (active) | 0.0168 µM (active) | 1.72 µM (inactive) | 0.275 µM (active) | 0.421 µM (active) | 1.19 µM (inactive) | 0.0962 µM (active) | 0.527 µM (active) | 0.885 µM (active) |  |  |
| O=C(CC1(O)C(=O)Nc2c(Cl)cccc21)c1ccccc1 (configuration not stated) | > 100 µM (inactive) |  | > 100 µM (inactive) | > 100 µM (inactive) |  | > 100 µM (inactive) | > 100 µM (inactive) | > 100 µM (inactive) | > 100 µM (inactive) | > 100 µM (inactive) | > 100 µM (inactive) |  | > 100 µM (inactive) | 76.4 µM (inactive) | > 100 µM (inactive) | > 100 µM (inactive) | > 100 µM (inactive) |
| COc1cccc(/C=C2\CCC(C)(CN(C)C)C2=O)c1 (configuration not stated) | > 100 µM (inactive) | > 100 µM (inactive) | > 100 µM (inactive) | 69 µM (inactive) | > 100 µM (inactive) | > 100 µM (inactive) | > 100 µM (inactive) |  | > 100 µM (inactive) | > 100 µM (inactive) | > 100 µM (inactive) | 58.2 µM (inactive) | 29.4 µM (inactive) | 57 µM (inactive) | > 100 µM (inactive) | 46.5 µM (inactive) | > 100 µM (inactive) |
| CCOc1ccccc1NC(=O)CC1Sc2ccccc2NC1=O (configuration not stated) | 73.3 µM (inactive) | 62.7 µM (inactive) | 61.2 µM (inactive) | 26.1 µM (inactive) |  | 82.2 µM (inactive) | 52.7 µM (inactive) | 23.9 µM (inactive) | > 100 µM (inactive) | > 100 µM (inactive) | > 100 µM (inactive) | > 100 µM (inactive) | 95.7 µM (inactive) | 49.2 µM (inactive) | 58.3 µM (inactive) | 41.5 µM (inactive) | > 100 µM (inactive) |
| CN1C(c2ccccc2)CC(=Nc2ccccc2)CC1c1ccccc1 (configuration not stated) | 18 µM (inactive) |  | 15.6 µM (inactive) | 10.9 µM (inactive) |  | 11.5 µM (inactive) | 10.8 µM (inactive) | 2.61 µM (inactive) |  | 4.48 µM (inactive) | 10.8 µM (inactive) | 4.91 µM (inactive) | 17.5 µM (inactive) | 10.8 µM (inactive) | 6.97 µM (inactive) | 16.2 µM (inactive) | 19.2 µM (inactive) |
| Cc1cc(Cl)ccc1NC(=O)CC1SC(Nc2ccccc2Cl)=NC1=O (configuration not stated) | > 100 µM (inactive) | 20.3 µM (inactive) | 38.6 µM (inactive) | 36.6 µM (inactive) | 65.6 µM (inactive) | 36.3 µM (inactive) | 91.8 µM (inactive) | 15.9 µM (inactive) | 52.2 µM (inactive) |  | 39 µM (inactive) | 30.3 µM (inactive) | 41.7 µM (inactive) | 37.2 µM (inactive) | 29.6 µM (inactive) | 73.3 µM (inactive) | 88.5 µM (inactive) |
| CCC1=C(C)/C(=C/c2[nH]c(CBr)c(CC)c2C)N=C1CBr | 15 µM (inactive) | 18.7 µM (inactive) | 14.6 µM (inactive) | 16.8 µM (inactive) |  | 18.4 µM (inactive) | 20.7 µM (inactive) | 4.59 µM (inactive) | 12.2 µM (inactive) | > 100 µM (inactive) | 13.7 µM (inactive) |  | 10.2 µM (inactive) | 12.2 µM (inactive) | 7.23 µM (inactive) | 21.7 µM (inactive) | 18.4 µM (inactive) |
| Cc1cc(/N=N/c2ccc(/N=N/c3c(O)c(S(=O)(=O)O)cc4cc(S(=O)(=O)O)ccc34)cc2C)ccc1/N=N/c1ccc2cc(S(=O)(=O)O)cc(S(=O)(=O)O)c2c1 | > 100 µM (inactive) | > 100 µM (inactive) | > 100 µM (inactive) | > 100 µM (inactive) | > 100 µM (inactive) | > 100 µM (inactive) | > 100 µM (inactive) | > 100 µM (inactive) | > 100 µM (inactive) | > 100 µM (inactive) | > 100 µM (inactive) | > 100 µM (inactive) |  | > 100 µM (inactive) | > 31.6 µM (inactive) | > 100 µM (inactive) |  |
| C/C(=N\Nc1nnc(S)n1N)c1c(O)cc(C)oc1=O | > 100 µM (inactive) | > 100 µM (inactive) | > 100 µM (inactive) |  | > 100 µM (inactive) | > 100 µM (inactive) | > 100 µM (inactive) | > 100 µM (inactive) | > 100 µM (inactive) | > 100 µM (inactive) | > 100 µM (inactive) | > 100 µM (inactive) | > 100 µM (inactive) | > 100 µM (inactive) | > 100 µM (inactive) | > 100 µM (inactive) | > 100 µM (inactive) |
| N#CNCC(COCc1ccccc1)c1ccccc1 (configuration not stated) | > 100 µM (inactive) | > 100 µM (inactive) | > 100 µM (inactive) | 49.2 µM (inactive) | > 100 µM (inactive) | > 100 µM (inactive) | > 100 µM (inactive) | 61.4 µM (inactive) | > 100 µM (inactive) | > 100 µM (inactive) | > 100 µM (inactive) | > 100 µM (inactive) |  | 70.5 µM (inactive) | > 100 µM (inactive) | > 100 µM (inactive) | > 100 µM (inactive) |
| CC1=NN2C(c3ccc([N+](=O)[O-])cc3)=CSC2=NC(C)(C)C1 | > 100 µM (inactive) | > 100 µM (inactive) | > 100 µM (inactive) | > 100 µM (inactive) | > 100 µM (inactive) | > 100 µM (inactive) | > 100 µM (inactive) | > 100 µM (inactive) | > 100 µM (inactive) | > 100 µM (inactive) | > 100 µM (inactive) | > 100 µM (inactive) |  | > 100 µM (inactive) | > 100 µM (inactive) | > 100 µM (inactive) | > 100 µM (inactive) |
| CCOC(=O)C(Sc1ccccc1)c1c(OC)cc(=O)oc1/C=[N+](/[O-])c1ccc(N(C)C)cc1 (configuration not stated) | 66.4 µM (inactive) | 24.4 µM (inactive) | 27.5 µM (inactive) | 20 µM (inactive) | 52.7 µM (inactive) | 28.4 µM (inactive) | 17.2 µM (inactive) |  | 23.9 µM (inactive) | 13.4 µM (inactive) | 31.5 µM (inactive) |  | 14.9 µM (inactive) | 14.7 µM (inactive) | 18.4 µM (inactive) | 33.3 µM (inactive) | 35 µM (inactive) |
| C=C1CCC2C(C)(CO)C(O)CCC2(C)C1CC(O)/C(=C/CO)C(=O)O (configuration not stated) | > 100 µM (inactive) | > 100 µM (inactive) |  | > 100 µM (inactive) | > 100 µM (inactive) | > 100 µM (inactive) | > 100 µM (inactive) | > 100 µM (inactive) | > 100 µM (inactive) | > 100 µM (inactive) | > 100 µM (inactive) | > 100 µM (inactive) | > 100 µM (inactive) | > 100 µM (inactive) | > 100 µM (inactive) |  | > 100 µM (inactive) |
| Cc1nc2c(=O)n(C)c(=O)nc-2n(-c2ccc(Cl)cc2)c1C | > 100 µM (inactive) | > 100 µM (inactive) | > 100 µM (inactive) | 79.1 µM (inactive) | > 100 µM (inactive) | > 100 µM (inactive) | > 100 µM (inactive) | 45.3 µM (inactive) | > 100 µM (inactive) |  | > 100 µM (inactive) |  | 43.1 µM (inactive) | > 100 µM (inactive) | > 100 µM (inactive) | > 100 µM (inactive) | > 100 µM (inactive) |
| O=C1C(=O)N(c2ccc(Cl)c(Cl)c2)C(=O)C(=O)C1c1nc2ccccc2s1 | > 100 µM (inactive) | > 100 µM (inactive) | > 100 µM (inactive) | > 100 µM (inactive) | > 100 µM (inactive) | > 100 µM (inactive) | > 100 µM (inactive) |  | > 100 µM (inactive) | > 100 µM (inactive) | > 100 µM (inactive) | > 100 µM (inactive) | > 100 µM (inactive) | > 100 µM (inactive) | 56.5 µM (inactive) | > 100 µM (inactive) | > 100 µM (inactive) |
| COc1ccc(C(N)=O)c(OC)c1OCc1ccccc1 | > 100 µM (inactive) | > 100 µM (inactive) | 9.51 µM (inactive) | > 100 µM (inactive) | > 100 µM (inactive) | > 100 µM (inactive) |  | > 100 µM (inactive) | > 100 µM (inactive) | > 100 µM (inactive) | > 100 µM (inactive) | > 100 µM (inactive) |  | > 100 µM (inactive) | > 100 µM (inactive) | > 100 µM (inactive) | > 100 µM (inactive) |
| C[Si](C)(C)[C@@]1([Se]c2ccccc2)CC[C@@H]1C(=O)c1ccccc1 | > 100 µM (inactive) | 62.7 µM (inactive) | 33.7 µM (inactive) | 18.5 µM (inactive) | > 100 µM (inactive) | 56.2 µM (inactive) | 70 µM (inactive) |  | 32.6 µM (inactive) | 35.9 µM (inactive) | 28.8 µM (inactive) | 33.6 µM (inactive) | 72.1 µM (inactive) | 53 µM (inactive) | 50.5 µM (inactive) | 49.3 µM (inactive) | > 100 µM (inactive) |
| COc1cccc(-n2c3nc(=O)n(C)c(=O)c-3nc3ccccc32)c1 | 37.9 µM (inactive) | 12.4 µM (inactive) | 15.7 µM (inactive) | 3.24 µM (inactive) | 34.5 µM (inactive) | 12.6 µM (inactive) | 14.3 µM (inactive) | 6.01 µM (inactive) | 3.88 µM (inactive) |  | 16.7 µM (inactive) | 23.1 µM (inactive) | 16.2 µM (inactive) | 5.09 µM (inactive) | 14.6 µM (inactive) | 29.8 µM (inactive) | 45.6 µM (inactive) |
